Measured values from patent publication US11401286B2 (Tetra Discovery Partners, LLC, priority 2012, dated 2022).
Structures can show the parent of a compound that is named as a salt. Where two headings read alike, the source gives them in different places.

Target: PDE4D7 (Homo sapiens (Human), UniProt Q08499)
Settings: read-out: PDE4D7 IC50

PDE4D7, sequence (Q08499 other isoform, or with tags, fused parts or gaps): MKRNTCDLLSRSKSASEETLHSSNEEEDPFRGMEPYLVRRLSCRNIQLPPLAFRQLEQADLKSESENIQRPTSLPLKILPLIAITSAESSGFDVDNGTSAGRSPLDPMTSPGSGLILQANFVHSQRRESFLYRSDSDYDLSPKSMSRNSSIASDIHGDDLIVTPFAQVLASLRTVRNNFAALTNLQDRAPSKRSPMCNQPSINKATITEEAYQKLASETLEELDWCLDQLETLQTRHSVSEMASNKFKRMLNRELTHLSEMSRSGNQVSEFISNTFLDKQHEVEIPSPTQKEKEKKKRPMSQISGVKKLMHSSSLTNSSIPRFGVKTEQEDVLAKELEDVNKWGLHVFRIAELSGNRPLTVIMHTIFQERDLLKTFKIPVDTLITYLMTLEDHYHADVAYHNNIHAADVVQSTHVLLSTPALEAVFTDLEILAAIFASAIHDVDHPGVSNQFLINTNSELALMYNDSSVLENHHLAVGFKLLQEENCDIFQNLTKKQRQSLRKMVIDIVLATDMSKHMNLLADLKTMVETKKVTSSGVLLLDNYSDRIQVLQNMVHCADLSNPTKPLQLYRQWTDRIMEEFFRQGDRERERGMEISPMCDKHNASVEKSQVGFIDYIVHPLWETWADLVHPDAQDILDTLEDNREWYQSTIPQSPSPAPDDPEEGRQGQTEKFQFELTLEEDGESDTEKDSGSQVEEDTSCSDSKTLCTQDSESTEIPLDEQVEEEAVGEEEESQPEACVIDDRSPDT

| IC50 (PDE4D7 without asterisk) | SMILES | IC50 |
| --- | --- | --- |
| < 1 µM | CCc1nc(Nc2ccc(C(N)=O)cc2)nc(-c2cccc(Cl)c2)n1 [Example 62, 4-(4-(3-chlorophenyl)-6-ethyl-1,3,5-triazin-2-ylamino)benzamide] |  |
| > 1 µM | CC(C)Oc1cc(Nc2ccc(CCO)cc2)c2c(n1)CCC2 [Example 260, 2-(4-((2-Isopropoxy-6,7-dihydro-5H-cyclopenta[b]pyridin-4-yl)amino)phenyl)ethanol hydrochloride] |  |
| > 1 µM | NC(=O)Cc1ccc(Cc2cc(C3CC3)nc(-c3cccc(Cl)c3)n2)cc1 [Example 209, 2-(4-((2-(3-chlorophenyl)-6-cyclopropylpyrimidin-4-yl)methyl)phenyl)acetamide] |  |
| > 1 µM | NC(=O)Cc1ccc(Nc2cc(-c3ccco3)nc3c2CCC3)cc1 [Example 240, 2-(4-((2-(Furan-2-yl)-6,7-dihydro-5H-cyclopenta[b]pyridin-4-yl)amino)phenyl)acetamide hydrochloride] |  |
| > 1 µM | O=C(O)Cc1ccc(Cc2cc(C(F)(F)F)nc(OC3CCCC3)n2)cc1 [Example 200, 2-(4-((2-(Cyclopentyloxy)-6-(trifluoromethyl)pyrimidin-4-yl)methyl)phenyl)acetic acid] |  |
| > 1 µM | NC(=O)Cc1ccc(Nc2cc(-c3cncc(Cl)c3)nc3c2CCC3)cc1 [Example 134, 2-(4-((2-(5-Chloropyridin-3-yl)-6,7-dihydro-5H-cyclopenta[b]pyridin-4-yl)amino)phenyl)acetamide hydrochloride] |  |
| < 1 µM | O=C(Cc1ccc(Nc2cc(C3CC3)nc(-c3cccc(Cl)c3)n2)nc1)NCCO [Example 215, 2-(6-((2-(3-Chlorophenyl)-6-cyclopropylpyrimidin-4-yl)amino)pyridin-3-yl)-N-(2-hydroxyethyl)acetamide] |  |
| > 1 µM | O=C(O)Cc1ccc(Nc2cc(C3CCCC3)nc(C(F)(F)F)c2)cc1 [Example 161, 2-(4-((2-Cyclopentyl-6-(trifluoromethyl)pyridin-4-yl)amino)phenyl)acetic acid] |  |
| < 1 µM | O=C(O)c1ccc(Nc2nc(-c3ccc(Cl)cc3)nc(C3CC3)n2)cc1 [Example 38, 4-((4-(4-chlorophenyl)-6-cyclopropyl-1,3,5-triazin-2-yl)amino)benzoic acid] |  |
| < 1 µM | NC(=O)Cc1ccc(Nc2nc(-c3ccccc3)nc3c2S(=O)(=O)CCC3)cc1 [Example 269, 2-(4-((5,5-dioxido-2-phenyl-7,8-dihydro-6H-thiopyrano[3,2-d]pyrimidin-4-yl)amino)phenyl)acetamide] |  |
| > 1 µM | NC(=O)Cc1ccc(Nc2cc(OC3CCCC3)nc3c2CCC3)cc1 [Example 256, 2-(4-((2-(Cyclopentyloxy)-6,7-dihydro-5H-cyclopenta[b]pyridin-4-yl)amino)phenyl)acetamide hydrochloride] |  |
| < 1 µM | CCc1c(C)nc(-c2ccc(Cl)s2)nc1Nc1ccc(B(O)O)cc1 [Example 292, [4-[[2-(5-Chloro-2-thienyl)-5-ethyl-6-methyl-pyrimidin-4-yl]amino]phenyl]boronic acid] |  |
| > 1 µM | Cc1cc(Nc2cc(-c3cccc(Cl)c3)nc3c2CCC3)ccc1CC(N)=O [Example 111, 2-(4-((2-(3-Chlorophenyl)-6,7-dihydro-5H-cyclopenta[b]pyridin-4-yl)amino)-2-methylphenyl)acetamide hydrochloride] |  |

More lines, now with the values behind:

| SMILES | IC50 (PDE4D7 without asterisk) | IC50 |
| --- | --- | --- |
| O=C(O)COc1ccc(Nc2cc(-c3cccc(Cl)c3)nc3c2CCC3)cc1 [Example 4, 2-[4-[[2-(3-Chlorophenyl)-6,7-dihydro-5H-cyclopenta[b]pyridin-4-yl]amino]phenoxy]acetic acid] |  | > 1 µM |
| OCCc1ccc(Nc2cc(C3CC3)nc(-c3cccc(Cl)c3)n2)cc1 [Example 206, 2-(4-((2-(3-Chlorophenyl)-6-cyclopropylpyrimidin-4-yl)amino)phenyl)ethanol] | < 1 µM |  |
| CCc1cc(Oc2ccc(CC(N)=O)cc2)nc(-c2cccc(Cl)c2)n1 [Example 181, 2-(4-((2-(3-Chlorophenyl)-6-ethylpyrimidin-4-yl)oxy)phenyl)acetamide] |  | > 1 µM |
| OCCCc1ccc(Nc2cc(-c3cccc(Cl)c3)nc(C(F)(F)F)c2)cc1 [Example 147, 3-(4-((2-(3-Chlorophenyl)-6-(trifluoromethyl)pyridin-4-yl)amino)phenyl)propan-1-ol] | < 1 µM |  |
| O=C(O)Cc1ccc(Nc2nc(-c3cccc(Cl)c3)nc3c2CCC3)cc1 [Example 10, 2-[4-[[2-(3-Chlorophenyl)-6,7-dihydro-5H-cyclopenta[d]pyrimidin-4-yl]amino]phenyl]acetic acid] | > 1 µM |  |
| CCc1c(C)nc(-c2ccc(Cl)s2)nc1Nc1ccc(C2=C(O)CCC2=O)cc1 [Example 303, 2-[4-[[2-(5-Chloro-2-thienyl)-5-ethyl-6-methyl-pyrimidin-4-yl]amino]phenyl]-3-hydroxy-cyclopent-2-en-1-one] | > 1 µM |  |
| NC(=O)Cc1ccc(Nc2cc(-c3cccc(Cl)c3)nc(C(F)(F)F)c2)cc1 [Example 145, 2-(4-((2-(3-Chlorophenyl)-6-(trifluoromethyl)pyridin-4-yl)amino)phenyl)acetamide] | < 1 µM |  |
| CCc1c(C)nc(-c2ccc(Cl)s2)nc1Nc1ccc(CS(C)(=O)=O)cc1 [Example 317, 2-(5-chloro-2-thienyl)-5-ethyl-6-methyl-N-[4-(methylsulfonylmethyl)phenyl]pyrimidin-4-amine] | > 1 µM |  |
| Cc1cc(Nc2nc(-c3cccc(Cl)c3)nc3c2CCC3)ccc1CC#N [Example 177, 2-(4-((2-(3-Chlorophenyl)-6,7-dihydro-5H-cyclopenta[d]pyrimidin-4-yl)amino)-2-methylphenyl)acetonitrile] | > 1 µM |  |
| NC(=O)Cc1ccc(Cc2cc(OC3CCCC3)nc3c2CCC3)cc1 [Example 131, 2-(4-((2-(Cyclopentyloxy)-6,7-dihydro-5H-cyclopenta[b]pyridin-4-yl)methyl)phenyl)acetamide hydrochloride] | > 1 µM |  |
| O=C(O)Cc1ccc(Nc2nc(-c3cccc(Cl)c3)nc3c2S(=O)(=O)CCC3)cc1 [Example 275, 2-(4-((2-(3-chlorophenyl)-5,5-dioxido-7,8-dihydro-6H-thiopyrano[3,2-d]pyrimidin-4-yl)amino)phenyl)acetic acid] | < 1 µM |  |
| NC(C(=O)O)c1ccc(Nc2nc(-c3ccc(Cl)s3)nc3c2CCC3)cc1 (stereo not drawn) [Example 12, 2-Amino-2-[4-[[2-(5-chloro-2-thienyl)-6,7-dihydro-5H-cyclopenta[d]pyrimidin-4-yl]amino]phenyl]acetic acid hydrochloride] | > 1 µM |  |
| Fc1ccc(Nc2cc(-c3cccc(Cl)c3)nc3c2CCC3)cc1 [Example 290, 2-(3-Chlorophenyl)-N-(4-fluorophenyl)-6,7-dihydro-5H-cyclopenta[b]pyridin-4-amine hydrochloride] | > 1 µM |  |
| FC(F)(F)c1cc(Cc2ccc(Cn3cc(Cl)cn3)cc2)nc(-c2cccc(Cl)c2)n1 [Example 218, 4-(4-((4-Chloro-1H-pyrazol-1-yl)methyl)benzyl)-2-(3-chlorophenyl)-6-(trifluoromethyl)pyrimidine] | > 1 µM |  |
| OCCc1ccc(Nc2cc(C(F)(F)F)nc(OC3CCCC3)n2)cc1 [Example 199, 2-(4-((2-(Cyclopentyloxy)-6-(trifluoromethyl)pyrimidin-4-yl)amino)phenyl)ethanol] | < 1 µM |  |
| NC(=O)Cc1ccc(Nc2cc(-c3cc(Cl)ccc3Cl)nc3c2CCC3)cc1 [Example 155, 2-(4-((2-(2,5-Dichlorophenyl)-6,7-dihydro-5H-cyclopenta[b]pyridin-4-yl)amino)phenyl)acetamide hydrochloride] | > 1 µM |  |
| CC(C)(O)Cc1ccc(Nc2cc(-c3cccc(Cl)c3)nc3c2CCC3)cc1 [Example 98, 1-(4-((2-(3-Chlorophenyl)-6,7-dihydro-5H-cyclopenta[b]pyridin-4-yl)amino)phenyl)-2-methylpropan-2-ol] | > 1 µM |  |
| OCCc1ccc(Nc2cc(-c3ccc(F)c(Cl)c3)nc3c2CCC3)cc1 [Example 151, 2-(4-((2-(3-Chloro-4-fluorophenyl)-6,7-dihydro-5H-cyclopenta[b]pyridin-4-yl)amino)phenyl)ethanol hydrochloride] | > 1 µM |  |
| CCc1cc(Cc2ccc(CC(=O)OC)cc2)nc(C2CCCC2)n1 [Example 223, Methyl 2-(4-((2-cyclopentyl-6-ethylpyrimidin-4-yl)methyl)phenyl)acetate] | > 1 µM |  |
| O=C(O)Cc1ccc(Nc2nc(-c3ccc(Cl)s3)nc3c2CCC3)cc1 [Example 9, 2-[4-[[2-(5-Chloro-2-thienyl)-6,7-dihydro-5H-cyclopenta[d]pyrimidin-4-yl]amino]phenyl]acetic acid] | > 1 µM |  |
| CC(C)(CO)c1ccc(Cc2cc(-c3cccc(Cl)c3)nc3c2CCC3)cc1 [Example 128, 2-(4-((2-(3-Chlorophenyl)-6,7-dihydro-5H-cyclopenta[b]pyridin-4-yl)methyl)phenyl)-2-methylpropan-1-ol hydrochloride] | > 1 µM |  |
| Cc1nc(Nc2ccc(C(=O)O)cc2)nc(-c2ccc(Cl)s2)n1 [Example 31, 4-(4-(5-chlorothiophen-2-yl)-6-methyl-1,3,5-triazin-2-ylamino)benzoic acid] | > 1 µM |  |
| OCCc1ccc(Nc2cc(-c3cccc(Cl)c3)nc3c2CCC3)cc1F [Example 113, 2-(4-((2-(3-Chlorophenyl)-6,7-dihydro-5H-cyclopenta[b]pyridin-4-yl)amino)-2-fluorophenyl)ethanol hydrochloride] | > 1 µM |  |
| CCc1cc(Oc2ccc(CC(N)=O)cn2)nc(-c2cccc(Cl)c2)n1 [Example 183, 2-(6-((2-(3-Chlorophenyl)-6-ethylpyrimidin-4-yl)oxy)pyridin-3-yl)acetamide] | > 1 µM |  |
| CC(=O)Cc1ccc(Nc2nc(-c3cccc(Cl)c3)nc3c2CCC3)cc1 [Example 164, 1-(4-((2-(3-Chlorophenyl)-6,7-dihydro-5H-cyclopenta[d]pyrimidin-4-yl)amino)phenyl)propan-2-one] | > 1 µM |  |
| OCCc1ccc(Nc2cc(C3CCCCC3)nc3c2CCC3)cc1 [Example 251, 2-(4-((2-cyclohexyl-6,7-dihydro-5H-cyclopenta[b]pyridin-4-yl)amino)phenyl)ethanol hydrochloride] | > 1 µM |  |
